ChEMBL document CHEMBL4334515, “Lignans from Saururus chinensis with Inhibitory Effects on Nitric Oxide Production” (J Nat Prod, 2019)

Assays:
[1] = tested on: RAW264.7; experiment: Inhibition of LPS-induced NO production in mouse RAW264.7 cells incubated for 24 hrs in presence of LPS by Griess reagent based assay; assay type: functional, cell-based; conditions: RAW264.7, 24 h
[2] = tested on: RAW264.7; experiment: Cytotoxicity against mouse RAW264.7 cells assessed as effect on cell viability at 10 uM by CCK-8 assay; assay type: cell-based; conditions: raw264.7, 10 µM

SMILES | IC50 [1] [µM] | Activity [2]
C=CCc1cc(OC)c(O[C@H](C)[C@H](OC(C)=O)c2cc(OC)c(OC)c(OC)c2)c(OC)c1 | 10.4 | Non-Toxic
C/C=C/c1cc(OC)c(O[C@H](C)[C@H](OC(C)=O)c2cc(OC)c(OC)c(OC)c2)c(OC)c1 | 16.9 | Non-Toxic
COC/C=C/c1ccc(O[C@@H](C)C(=O)c2cc(OC)c(OC)c(OC)c2)c(OC)c1 | 8.6 | Non-Toxic
COC1=CC(=O)C2=C(C1=O)[C@@H](c1cc3c(cc1O)OCO3)[C@H](C)[C@@H](C)C2 | – | Toxic
COc1cc([C@@H]2OC(=O)O[C@H]2C)cc(OC)c1C | 40.1 | Non-Toxic
C/C=C/c1cc(OC)c(O[C@@H](C)C(=O)c2cc(OC)c(OC)c(OC)c2)c(OC)c1 | 14 | Non-Toxic
CC(C(=O)c1ccc2c(c1)OCO2)[C@H](C)Cc1ccc2c(c1)OCO2 (stereo not given in full) | > 50 | Non-Toxic
CC(Cc1ccc2c(c1)OCO2)[C@H](C)Cc1ccc2c(c1)OCO2 (stereo not given in full) | 16.5 | Non-Toxic
C=CCc1cc(OC)c(O[C@H](C)[C@H](O)c2cc(OC)c(OC)c(OC)c2)c(OC)c1 | 46.1 | Non-Toxic
C[C@H]1[C@@H]2c3cc4c(cc3O[C@]35OCOC3=CC(=O)[C@H](C[C@@H]1C)[C@H]25)OCO4 | 5.6 | Non-Toxic
C[C@H]1[C@@H]2c3cc4c(cc3O[C@]35OCOC3=CC(=O)[C@@H](C[C@@H]1C)[C@H]25)OCO4 | 9.2 | Non-Toxic
C[C@H]1[C@@H]2c3cc4c(cc3O[C@]35OCOC3=CC(=O)[C@@H](C[C@@H]1C)[C@@H]25)OCO4 | > 50 | Non-Toxic
C=CCc1cc(OC)c(O[C@@H](C)[C@@H](OC(C)=O)c2cc(OC)c3c(c2)OCO3)c(OC)c1 | 23.7 | Non-Toxic
C[C@H](Cc1cc2c(cc1O)OCO2)[C@H](C)Cc1cc2c(cc1O)OCO2 | 42.4 | Non-Toxic
C=CCc1cc(OC)c(OC)c(OC)c1 | > 50 | Non-Toxic
COC/C=C/c1cc(OC)c(O[C@@H](C)[C@@H](O)c2cc(OC)c3c(c2)OCO3)c(OC)c1 | 35.5 | Non-Toxic
C[C@H](Cc1ccc2c(c1)OCO2)[C@H](C)Cc1cc2c(cc1O)OCO2 (relative stereo) | 41.4 | Non-Toxic
C/C=C/c1ccc(O[C@@H](C)[C@@H](O)c2ccc(O)c(OC)c2)c(OC)c1 [MACHILIN D] | 21.1 | Non-Toxic
COc1cc(C[C@@H](C)[C@@H](C)Cc2ccc(O)c(OC)c2)ccc1O [MESODIHYDROGUAIARETIC ACID] | 20.3 | Non-Toxic
N=C(N)NN [PIMAGEDINE] | 25.5 | –
C[C@@H]([C@H](C)[C@H](O)c1ccc2c(c1)OCO2)[C@H](O)c1ccc2c(c1)OCO2 [SAUCERNEOL I] | > 50 | Non-Toxic
